What is called pIC50 is the negative decadic logarithm of the IC50, by convention in mol/L.

Drawing on patent publication US11053253B2, “Macrocyclic compounds for treatment of medical disorders” (Achillion Pharmaceuticals, Inc., priority 2017, dated 2021), this text covers IC50 for 42 molecules.

Each structure is given as a SMILES string. pIC50: −log10 of the molar value.

The target of this test is Human Factor D (Homo sapiens (Human), UniProt P00746). The experiment in a line: Human Factor D Assay. The class given is biochemical. As to conditions: Human Factor D 80 nM, substrate Z-L-Lys-SBzl, DTNB, A405; read-out: IC50 (Stars). The procedure, abridged: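 Serum-purified enzyme (80 nM final) was preincubated with compound 5 min at room temperature in 50 mM Tris, 1M NaCl, pH 7.5. Z-L-Lys-SBzl and DTNB ([…] each, final) were added and A405 followed every 30 s for 30 min; IC50 from nonlinear regression of reaction rates.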
Chain of Human Factor D (P00746 26-253): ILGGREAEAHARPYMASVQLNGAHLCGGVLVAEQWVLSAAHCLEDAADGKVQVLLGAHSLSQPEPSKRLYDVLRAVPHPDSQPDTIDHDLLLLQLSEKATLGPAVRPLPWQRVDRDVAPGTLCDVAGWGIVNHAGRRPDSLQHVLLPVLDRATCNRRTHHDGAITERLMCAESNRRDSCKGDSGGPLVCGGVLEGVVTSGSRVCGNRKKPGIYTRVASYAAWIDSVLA
Regarding `CC(=O)N[C@H]1CC=CCOCc2ccc(Br)nc2NC(=O)[C@@H]2C[C@]3(C[C@H]3N2C(=O)Cn2nc(C(C)=O)c3cc(-c4cnc(C)nc4)ccc32)CN(C)C1=O` [Compound T-103], the pIC50 is over 6.00.

As for `CC(=O)c1nn2c3c(cc(-c4cnc(C)nc4)cc13)CCCCCCCOC[C@@]13C[C@@H](C(=O)Nc4nc(Br)ccc4C)N(C(=O)C2)[C@@H]1C3` [Compound T-108], the pIC50 is over 6.00.

`CC(=O)c1nn(CC(=O)N2[C@H]3C[C@@]4(COCCCCCCc5ccc(Br)nc5NC3=O)C[C@@H]24)c2cnc(-c3cnc(C)nc3)cc12` [Compound T-42]: the pIC50 is over 6.00. `CC(=O)c1nn(CC(=O)N2[C@H]3C[C@@]4(CNC(=O)C(F)(F)CCCCOCc5ccc(Br)nc5NC3=O)C[C@@H]24)c2cnc(-c3cnc(C)nc3)cc12` [Compound T-119]: the pIC50 was over 6.00. In the case of `CC(=O)c1nn2c3c(cc(-c4cnc(C)nc4)cc13)CCCCCCC(=O)NC[C@@]13C[C@@H](C(=O)N[C@@H](C)CC(C)(C)C)N(C(=O)C2)[C@@H]1C3` [Compound T-226], the pIC50 was over 6.00. Regarding `CC(=O)c1nn(CC(=O)N2[C@H]3C[C@@]4(COCC=CCOCc5ccc(Br)nc5NC3=O)C[C@@H]24)c2cnccc12` [Compound T-11, (41R,43S,45S)-42-(2-(3-acetyl-1H-pyrazolo[3,4-c]pyridin-1-yl)acetyl)-16-bromo-6,11-dioxa-42,2-diaza-1(2,3)-pyridina-4(3,5)-bicyclo[3.1.0]hexanacyclododecaphan-8-en-3-one], the pIC50 was over 6.00. As to `CC(=O)c1nn2c3c(cc(-c4cnc(C)nc4)cc13)CC=CCCCC(=O)NC[C@@]1(F)C[C@@H](C(=O)Nc3nc(Br)ccc3C)N(C1)C(=O)C2` [Compound T-174], the pIC50 was over 6.00.

In the case of `CC(=O)c1nn(CC(=O)N2C[C@@]3(F)COCCCCCCc4ccc(Br)nc4NC(=O)[C@@H]2C3)c2cnc(-c3cnc(C)nc3)cc12` [Compound T-179], the pIC50 was over 6.00. Take `CC(=O)c1nn(CC(=O)N2C[C@@]3(F)CNC(=O)C(C)(C)CCCCOCc4ccc(Br)nc4NC(=O)[C@@H]2C3)c2ccc(-c3cnc(C)nc3)cc12` [Compound T-173]: the pIC50 was over 6.00. Take `CC(=O)c1nn(CC(=O)N2[C@H]3C[C@@]4(CCCC=CCOCc5ccc(Br)nc5NC3=O)C[C@@H]24)c2c(CF)cc(-c3cnc(C)nc3)cc12` [Compound T-89]: the pIC50 is over 6.00.

For the molecule `CCCCNC(=O)[C@@H]1C[C@]23CNC(=O)CCCCCCc4cc(-c5cnc(C)nc5)cc5c(C(C)=O)nn(c45)CC(=O)N1[C@@H]2C3` [Compound T-199], the pIC50 is over 6.00. Regarding `CC(=O)c1nn(CC(=O)N2[C@H]3C[C@]4(C[C@@H]24)Cn2ccc(n2)C=CCCC(F)(F)c2ccc(Br)nc2NC3=O)c2cnc(-c3cnc(C)nc3)cc12` [Compound T-105], the pIC50 is over 6.00. Take `CC(=O)c1nn2c3c(cc(-c4cnc(C)nc4)cc13)CCCCCCC(=O)NC[C@@]13C[C@@H](C(=O)Nc4nc(C#N)ccc4C)N(C(=O)C2)[C@@H]1C3` [Compound T-221]: the negative logarithm of the IC50 (pIC50) is over 6.00. As to `CC(=O)c1nn2c3c(cc(-c4cnc(C)nc4)cc13)CC=CCCCC(=O)N(C)C[C@@]13C[C@@H](C(=O)Nc4ccn(CC(F)(F)F)n4)N(C(=O)C2)[C@@H]1C3` [Compound T-204], the pIC50 was over 6.00.

For the molecule `CC(=O)c1nn(CC(=O)N2[C@H]3C[C@@]4(COCCCCCc5ccc(Br)nc5NC3=O)C[C@@H]24)c2ccc(-c3cnc(C)nc3)cc12` [Compound T-38], the pIC50 is over 6.00. Take `CC(=O)c1nn2c3c(cc(-c4cnc(C)nc4)cc13)CCCCCCC(=O)NC[C@@]13C[C@@H](C(=O)Nc4cc(Br)ccc4F)N(C(=O)C2)[C@@H]1C3` [Compound T-230]: the pIC50 is over 6.00.

Take `CC(=O)c1nn2c3c(cc(-c4cnc(C)nc4)cc13)CCCCCCC(=O)NC[C@@]13CC(C(=O)N[C@H](C)c4cccc(Cl)c4F)N(C(=O)C2)[C@@H]1C3` (stereo partly drawn) [Compound T-227]: the pIC50 is over 6.00. In the case of `CC(=O)c1nn(CC(=O)N2C[C@@]3(F)COCCCCCCCc4ccc(Br)nc4NC(=O)[C@@H]2C3)c2c(C)nc(-c3cnc(C)nc3)cc12` [Compound T-107] it was over 6.00. For the molecule `CC(=O)c1nn(CC(=O)N2[C@H]3C[C@@]4(CNC(=O)C(C)(C)CCCOCc5ccc(Br)nc5NC3=O)C[C@@H]24)c2ccc(-c3cnc(C)nc3)cc12` [Compound T-130], the pIC50 is over 6.00. In the case of `CC(=O)c1nn(CC(=O)N2[C@H]3C[C@@]4(CNC(=O)C(C)(C)CC=CCOCc5ccc(Br)nc5NC3=O)C[C@@H]24)c2cnc(-c3cnc(C)nc3)cc12` [Compound T-114] it was over 6.00; in that of `CC(=O)c1nn(CC(=O)N2[C@H]3C[C@@]4(CNC(=O)C(C)(C)CCCCc5ccc(Br)nc5NC3=O)C[C@@H]24)c2ccc(-c3cnc(C)nc3)cc12` [Compound T-183], over 6.00; in that of `CC(=O)c1nn(CC(=O)N2[C@H]3C[C@]4(C[C@@H]24)CN(C)CCCCC=CCc2ccc(Br)nc2NC3=O)c2c(C)cc(-c3cnc(C)nc3)cc12` [Compound T-60], over 6.00.

With `CC(=O)c1nn(CC(=O)N2C[C@@]3(F)COCCCCOCc4ccc(Br)nc4NC(=O)[C@@H]2C3)c2ccc(-c3cnc(C)nc3)cc12` [Compound T-162], the pIC50 is over 6.00.

Consider `CC(=O)c1nn2c3c(cc(-c4cnc(C)nc4)cc13)COCC=CC(F)(F)C(=O)NC[C@@]13C[C@@H](C(=O)Nc4nc(C(F)(F)F)ccc4C)N(C(=O)C2)[C@@H]1C3` [Compound T-138], for which the pIC50 is over 6.00. To `CC(=O)c1nn(CC(=O)N2[C@H]3C[C@@]4(CNC(=O)C(C)(C)CCCOCc5ccc(Br)nc5NC3=O)C[C@@H]24)c2cnc(-c3cnc(C)nc3)cc12` [Compound T-116] belongs over 6.00; to `CC(=O)c1nn(CC(=O)N2[C@H]3C[C@@]4(CNC(=O)C(C)(C)CC=CCOCc5ccc(Br)nc5NC3=O)C[C@@H]24)c2ccc(-c3cnc(C)nc3)cc12` [Compound T-115], over 6.00. With `CC(=O)c1nn2c3c(cc(-c4cnc(C)nc4)cc13)CCCCCC(=O)N(C)C[C@@]13C[C@@H](C(=O)Nc4nc(C(F)(F)F)ccc4C)N(C(=O)C2)[C@@H]1C3` [Compound T-125], the pIC50 is over 6.00. To `CC(=O)c1nn2c3c(cc(-c4cnc(C)nc4)cc13)CCCCCCC(=O)NC[C@@]13C[C@@H](C(=O)NCCC(C)(C)C)N(C(=O)C2)[C@@H]1C3` [Compound T-177] belongs over 6.00; to `CC(=O)c1cc2n(n1)CC(=O)N1[C@@H](C[C@@]3(C)C[C@@H]13)C(=O)Nc1nc(Br)ccc1COC/C=C/CCNC2=O` [Compound T-14, (18aS,19aR,20aR,E)-2-acetyl-15-bromo-19a-methyl-6,7,12,17,18a,19,19a,20,20a,23-decahydro-4H-cyclopropa[4,5]pyrrolo[2,1-g]pyrazolo[1,5-k]pyrido[3,2-c][1,5,8,11,14]oxatetraazacyclononadecine-4,18,22(5H,10H)-trione], under 5.00. Take `CC(=O)c1nn2c3c(cc(-c4cnc(C)nc4)cc13)CCCCCC(=O)NC[C@]1(F)C[C@@H](C(=O)Nc3nc(C(F)(F)F)ccc3C)N(C1)C(=O)C2` [Compound T-129]: the pIC50 is 5.00 to 6.00.

Take `CC(=O)c1nn2c3c(cc(-c4cnc(C)nc4)cc13)CC=CCCCC(=O)NC[C@@]13C[C@@H](C(=O)NCc4cccc(Cl)c4)N(C(=O)C2)[C@@H]1C3` [Compound T-94]: the pIC50 was over 6.00.

In the case of `CC(=O)c1nn(CC(=O)N2C[C@@]3(F)COCCCCCCc4ccc(Br)nc4NC(=O)[C@@H]2C3)c2ccc(-c3cnc(C)nc3)cc12` [Compound T-195], the pIC50 is over 6.00.

Turning to `CC(=O)c1nn2c3c(cc(-c4cnc(C)nc4)cc13)CC=CCCCC(=O)NC[C@@]13C[C@@H](C(=O)NCc4cccc(Cl)c4F)N(C(=O)C2)[C@@H]1C3` [Compound T-82], the pIC50 was over 6.00. In the case of `CC(=O)c1nn2c3c(cc(-c4cnc(C)nc4)cc13)CCCCCCC(=O)NC[C@@]13C[C@@H](C(=O)Nc4nc(Br)ccc4C4CC4)N(C(=O)C2)[C@@H]1C3` [Compound T-212], the pIC50 is over 6.00. `CC(=O)c1nn(CC(=O)N2[C@H]3C[C@]4(C[C@@H]24)CN2CCN(CCCOCc4ccc(Br)nc4NC3=O)CC2)c2ccc(-c3cnc(C)nc3)cc12` [Compound T-123]: the pIC50 was 5.00 to 6.00. Consider `CC(=O)c1nn2c3c(cc(-c4cnc(C)nc4)cc13)CCCCCCC(=O)NC[C@@]13C[C@@H](C(=O)Nc4nc(Br)c(F)cc4C)N(C(=O)C2)[C@@H]1C3` [Compound T-85], for which the pIC50 is over 6.00. In the case of `CC(=O)c1nn2c3c(cc(-c4cnc(C)nc4)cc13)CC=CCCCC(=O)NC[C@@]13C[C@@H](C(=O)Nc4nc(Br)c(F)cc4C)N(C(=O)C2)[C@@H]1C3` [Compound T-84] it was over 6.00. Take `CC(=O)c1nn(CC(=O)N2[C@H]3C[C@@]4(C=CCCCCCCc5ccc(Br)nc5NC3=O)C[C@@H]24)c2cnc(-c3cnc(C)nc3)cc12` [Compound T-43]: the pIC50 was over 6.00. As to `CC(=O)c1nn(CC(=O)N2[C@H]3C[C@@]4(CNC(=O)C(F)(F)CCCCOCc5ccc(Br)nc5NC3=O)C[C@@H]24)c2ccc(-c3cnc(C)nc3)cc12` [Compound T-120], the pIC50 is over 6.00.

As to `CC(=O)c1nn2c3c(nc(-c4cnc(C)nc4)cc13)C=CCCCC(=O)NC[C@@]13C[C@@H](C(=O)Nc4nc(C(F)(F)F)ccc4C)N(C(=O)C2)[C@@H]1C3` [Compound T-126], the pIC50 was over 6.00. Turning to `CC(=O)c1nn2c3c(cc(-c4cnc5cc(C)nn5c4)cc13)CCCCCCC(=O)NC[C@@]13C[C@@H](C(=O)Nc4nc(C(F)(F)F)ccc4C)N(C(=O)C2)[C@@H]1C3` [Compound T-256], the pIC50 is over 6.00. As for `CC(=O)c1nn(CC(=O)N2[C@H]3C[C@@]4(CNS(=O)(=O)CCC=Cc5ccc(Br)nc5NC3=O)C[C@@H]24)c2cnccc12` [Compound T-16, (41R,43S,45R)-42-(2-(3-acetyl-1H-pyrazolo[3,4-c]pyridin-1-yl)acetyl)-16-bromo-7-thia-42,2,6-triaza-1(2,3)-pyridina-4(3,5)-bicyclo[3.1.0]hexanacycloundecaphan-10-en-3-one 7,7-dioxide], the pIC50 was over 6.00.
